According to patent US9550742B2, “11-OXO-10,11-dihydrodibenzo[B,F][1,4]thiazepine S-oxide derivatives and their use as dopamine D2 receptor antagonists” (The United States of America, as Represented by the …, priority 2013, dated 2017):

Experiments:
[1] = biological target: D3 dopamine receptor (DAR) (Homo sapiens, UniProt P35462); assay: D3 beta-arrestin functional assay (PathHunter, CHO); assay type: cell-based; conditions: dose response curve; read-out: D3 β-arrestin assay AC50
Description: A CHO cell line was engineered to overexpress D3 dopamine receptor (DAR) and fused with a small 42-amino acid fragment of β-gal called ProLink™. In addition, these cells stably express a fusion protein of β-arrestin and a larger N-terminal deletion mutant of β-galactosidase (“enzyme acceptor”). When DAR is activated by dopamine, it stimulates binding of β-arrestin to ProLink-tagged DARs, and the two complementary parts of β-galactosidase form a functional enzyme. When substrate (PathHunter® Detection reagent) is added, βgalactosidase hydrolyzes it and generates a chemiluminescent signal.
For the 1,536-well assay, D3 PathHunter® β-arrestin cells were seeded at 2,100 cells/well in 3 μL/well media (DiscoveRx Plating Reagent 2) with MultiDrop Combi dispenser (Thermo Scientific, Logan, Utah) onto white tissue culture treated 1,536-well Aurora plates (Brooks Automation, Chelmsford, Mass.) and allowed to attach overnight at 37° C., 5% CO2. Next, 23 nL/well of compound solutions in DMSO were added with a pintool transfer (Kalypsis, San Diego, Calif.). The cells were stimulated by compounds for 90 minutes at 37° C., 5% CO2, after which 1.5 μL/well of DiscoveRx detection reagent was added with BioRAPTR FRD dispenser. […] The plates were incubated at ambient temperature for 1 h, and the luminescent signal was read on ViewLux plate reader (PerkinElmer, Waltham, Mass.).

[2] = biological target: Beta2 (Homo sapiens, UniProt P07550); assay: Affinity profile panel: Beta2; conditions: inhibition of binding
[3] = biological target: D1 (Homo sapiens, UniProt P21728); assay: Affinity profile panel: D1; conditions: inhibition of binding
[4] = biological target: T1, D2 receptor (Rattus norvegicus, UniProt P61169); assay: Sumanirole-induced hypothermia; assay type: in vivo; conditions: rats, subcutaneously
T1 construct: from tissue; host or cells: live rats (whole animal)
Description: These experiments test the ability of a compound of Formula I, ML321, to affect physiological or behavioral responses in rats that are mediated by D2 or D3 receptors. Sumanirole, an agonist of the D2 receptor, produces hypothermia in rats when administered subcutaneously. This response is known to be mediated by the D2 receptor and not the D3 receptor (Collins et al., Psychopharmacology (Berl). 2007, 193(2):159-70).
The sumanirole-induced hypothermia and pramipexole-induced yawning experiments show ML321 can act selectively to block the D2 receptor without blocking the D3 receptor when administered to living animals. Thus, the D2 selectivity identified using cellular assays can also be seen in living animals.

[5] = biological target: D5 (Homo sapiens, UniProt P21918); assay: Affinity profile panel: D5; conditions: inhibition of binding
[6] = biological target: Alpha1B (Homo sapiens, UniProt P35368); assay: Affinity profile panel: Alpha1B; conditions: inhibition of binding
[7] = biological target: 5-HT2C (Homo sapiens, UniProt P28335); assay: Affinity profile panel: 5-HT2C; conditions: inhibition of binding
Description: Antipsychotic drugs (depending on the specific drug) typically interact with a range of serotonergic, adrenergic, histaminergic, and muscarinic receptors.

[8] = biological target: T2, D2 GPCR receptor (DAR) (Homo sapiens, UniProt P14416); assay: D2 beta-arrestin functional assay (PathHunter, CHO); assay type: cell-based
T2 construct: host or cells: CHO PathHunter β-arrestin cells
Description: For a secondary-screen and selectivity assays, DAR PathHunter® β-arrestin GPCR cell lines from DiscoveRx (Fremont, Calif.). In this) were used. In the D2 Receptor PathHunter® β-arrestin GPCR cell line, the D2 GPCR receptor (DAR) is overexpressed and fused with a small 42-amino acid fragment of β-galactosidase called ProLink™ on a CHO cellular background expressing a fusion protein of β-arrestin and a larger N-terminal deletion mutant of β-galactosidase (“enzyme acceptor”). When DAR is activated by dopamine, it stimulates binding of β-arrestin to the ProLink-tagged DAR and the two complementary parts of β-galactosidase form a functional enzyme. When substrate (PathHunter® Detection reagent) is added, β-galactosidase hydrolyzes it and generates a chemiluminescent signal.
D2 Receptor PathHunter® β-arrestin cells were seeded at 2,100 cells/well in 3 μL/well media (DiscoveRx Plating Reagent 2) with MultiDrop Combi dispenser (Thermo Scientific, Logan, Utah) onto white tissue culture treated 1,536-well Aurora plates (Brooks Automation, Chelmsford, Mass.) and allowed to attach overnight at 37° C., 5% CO2. Next, 23 nL/well of compound solutions in DMSO were added with a pintool transfer (Kalypsis, San Diego, Calif.). The cells were stimulated by compounds for 90 min at 37° C., 5% CO2, after which 1.5 μL/well of DiscoveRx detection reagent was added with BioRAPTR FRD dispenser. The detection reagent was prepared by mixing of Galacton Star Substrate, Emerald II solution and PathHunter buffer (supplied by the assay kit) together at a 1:5:19 proportion just prior to dispensing. The plates were incubated at ambient temperature for 1 hr, and the luminescent signal was read on a ViewLux plate reader (PerkinElmer, Waltham, Mass.).

T2 sequence (P14416 whole entry): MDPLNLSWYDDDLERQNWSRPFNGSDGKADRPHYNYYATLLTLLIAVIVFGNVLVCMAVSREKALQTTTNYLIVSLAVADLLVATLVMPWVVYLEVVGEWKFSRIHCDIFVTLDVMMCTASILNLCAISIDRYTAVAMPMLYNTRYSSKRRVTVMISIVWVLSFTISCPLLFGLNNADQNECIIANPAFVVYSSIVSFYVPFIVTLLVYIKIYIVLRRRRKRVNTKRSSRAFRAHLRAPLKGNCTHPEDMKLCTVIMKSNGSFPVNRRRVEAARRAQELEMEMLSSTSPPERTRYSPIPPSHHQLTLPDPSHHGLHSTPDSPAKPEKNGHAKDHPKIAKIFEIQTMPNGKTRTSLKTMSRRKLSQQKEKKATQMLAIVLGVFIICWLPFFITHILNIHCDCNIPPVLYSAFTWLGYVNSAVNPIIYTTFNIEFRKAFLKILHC
T1 sequence (P61169 whole entry): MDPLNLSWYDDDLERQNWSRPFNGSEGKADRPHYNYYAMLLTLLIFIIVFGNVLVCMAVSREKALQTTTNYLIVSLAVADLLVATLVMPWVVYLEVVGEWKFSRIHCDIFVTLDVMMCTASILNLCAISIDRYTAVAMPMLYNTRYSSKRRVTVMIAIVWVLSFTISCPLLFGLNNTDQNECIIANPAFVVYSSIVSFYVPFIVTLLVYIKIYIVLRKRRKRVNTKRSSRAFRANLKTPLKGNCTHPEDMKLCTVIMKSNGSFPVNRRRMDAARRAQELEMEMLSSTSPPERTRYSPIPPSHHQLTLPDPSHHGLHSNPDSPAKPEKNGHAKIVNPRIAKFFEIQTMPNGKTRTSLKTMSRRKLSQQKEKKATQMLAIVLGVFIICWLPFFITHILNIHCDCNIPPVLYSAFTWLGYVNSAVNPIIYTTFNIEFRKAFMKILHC
D1, sequence (P21728 whole entry): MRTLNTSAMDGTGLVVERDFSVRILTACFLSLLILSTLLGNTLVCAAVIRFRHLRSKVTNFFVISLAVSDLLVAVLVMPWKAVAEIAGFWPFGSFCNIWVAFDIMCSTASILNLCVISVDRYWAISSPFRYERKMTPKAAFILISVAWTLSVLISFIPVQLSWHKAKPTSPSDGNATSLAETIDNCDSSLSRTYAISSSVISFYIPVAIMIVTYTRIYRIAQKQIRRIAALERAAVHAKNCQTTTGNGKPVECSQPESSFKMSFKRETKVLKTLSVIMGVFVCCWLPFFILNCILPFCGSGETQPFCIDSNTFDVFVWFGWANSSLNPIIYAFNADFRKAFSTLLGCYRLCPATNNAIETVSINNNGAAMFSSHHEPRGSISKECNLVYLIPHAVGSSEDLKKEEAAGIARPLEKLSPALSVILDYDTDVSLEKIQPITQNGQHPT
Beta2, sequence (P07550 whole entry): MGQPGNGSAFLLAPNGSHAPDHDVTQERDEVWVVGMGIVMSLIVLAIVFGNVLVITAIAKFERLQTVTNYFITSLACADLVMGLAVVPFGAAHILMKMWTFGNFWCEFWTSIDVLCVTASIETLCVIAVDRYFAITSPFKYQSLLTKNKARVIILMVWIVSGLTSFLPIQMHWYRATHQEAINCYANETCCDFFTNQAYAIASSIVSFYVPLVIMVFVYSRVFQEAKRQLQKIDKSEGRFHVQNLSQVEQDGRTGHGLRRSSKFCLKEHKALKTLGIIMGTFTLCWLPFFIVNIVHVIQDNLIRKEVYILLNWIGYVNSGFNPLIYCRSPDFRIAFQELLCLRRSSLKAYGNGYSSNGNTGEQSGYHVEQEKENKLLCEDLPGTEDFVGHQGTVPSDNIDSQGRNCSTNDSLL
D5, sequence (P21918 whole entry): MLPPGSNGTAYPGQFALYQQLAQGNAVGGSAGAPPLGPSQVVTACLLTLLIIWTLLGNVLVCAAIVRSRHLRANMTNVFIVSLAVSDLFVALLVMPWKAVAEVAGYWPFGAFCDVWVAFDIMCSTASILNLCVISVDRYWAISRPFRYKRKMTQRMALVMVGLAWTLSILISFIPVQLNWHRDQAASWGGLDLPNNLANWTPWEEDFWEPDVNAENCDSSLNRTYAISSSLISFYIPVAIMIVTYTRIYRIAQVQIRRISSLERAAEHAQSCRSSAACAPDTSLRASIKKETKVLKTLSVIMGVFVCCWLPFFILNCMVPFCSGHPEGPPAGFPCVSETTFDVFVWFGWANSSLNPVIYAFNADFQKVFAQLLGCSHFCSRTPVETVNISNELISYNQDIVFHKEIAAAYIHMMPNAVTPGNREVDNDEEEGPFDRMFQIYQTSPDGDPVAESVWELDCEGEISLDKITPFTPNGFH
Alpha1B, sequence (P35368 whole entry): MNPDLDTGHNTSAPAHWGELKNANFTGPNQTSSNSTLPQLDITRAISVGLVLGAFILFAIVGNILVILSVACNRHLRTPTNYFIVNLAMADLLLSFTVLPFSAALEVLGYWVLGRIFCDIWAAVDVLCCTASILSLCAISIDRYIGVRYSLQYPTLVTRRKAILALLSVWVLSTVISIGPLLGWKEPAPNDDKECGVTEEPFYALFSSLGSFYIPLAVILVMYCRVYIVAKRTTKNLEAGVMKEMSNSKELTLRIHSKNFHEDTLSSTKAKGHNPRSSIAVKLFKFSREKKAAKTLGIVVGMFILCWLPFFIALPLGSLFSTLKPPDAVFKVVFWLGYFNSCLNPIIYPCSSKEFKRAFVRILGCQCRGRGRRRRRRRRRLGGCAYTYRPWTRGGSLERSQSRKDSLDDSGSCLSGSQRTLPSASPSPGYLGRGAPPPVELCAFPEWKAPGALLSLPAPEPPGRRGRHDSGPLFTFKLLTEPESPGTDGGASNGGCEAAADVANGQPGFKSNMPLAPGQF
5-HT2C, sequence (P28335 33-458, species assumed): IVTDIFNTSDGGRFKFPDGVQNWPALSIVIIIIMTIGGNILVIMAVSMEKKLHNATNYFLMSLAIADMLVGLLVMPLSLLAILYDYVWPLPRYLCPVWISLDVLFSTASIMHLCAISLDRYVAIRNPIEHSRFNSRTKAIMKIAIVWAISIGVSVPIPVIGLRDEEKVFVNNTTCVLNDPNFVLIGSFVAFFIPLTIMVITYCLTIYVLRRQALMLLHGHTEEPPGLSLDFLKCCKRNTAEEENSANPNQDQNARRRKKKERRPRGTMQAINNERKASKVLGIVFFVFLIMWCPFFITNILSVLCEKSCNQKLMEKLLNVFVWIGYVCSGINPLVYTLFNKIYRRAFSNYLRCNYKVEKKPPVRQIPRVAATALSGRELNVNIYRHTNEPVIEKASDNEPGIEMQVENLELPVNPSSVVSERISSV
D3 dopamine receptor (DAR), sequence (P35462 whole entry): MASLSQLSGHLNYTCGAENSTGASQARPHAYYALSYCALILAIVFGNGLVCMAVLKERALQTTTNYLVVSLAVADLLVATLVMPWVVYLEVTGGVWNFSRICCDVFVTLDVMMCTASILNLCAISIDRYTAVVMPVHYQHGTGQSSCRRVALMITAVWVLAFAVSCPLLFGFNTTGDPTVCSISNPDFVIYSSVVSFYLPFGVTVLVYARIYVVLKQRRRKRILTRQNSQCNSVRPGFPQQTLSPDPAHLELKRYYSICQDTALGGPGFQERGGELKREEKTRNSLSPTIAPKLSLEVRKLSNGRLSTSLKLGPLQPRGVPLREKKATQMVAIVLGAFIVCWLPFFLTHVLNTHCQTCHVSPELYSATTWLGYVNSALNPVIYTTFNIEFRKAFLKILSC

With `CN1C(=O)c2ccccc2[S@+]([O-])c2ccc(C(=O)NCCc3cccs3)cc21` [Compound 55, 10-Methyl-11-oxo-N-(2-(thiophen-2-yl)ethyl)-10,11-dihydrodibenzo[b,f][1,4]thiazepine-8-carboxamide 5-(S)-oxide] the AC50 [1] was 12.9 µM, the “Inhibition (%) Beta2” value [2] was −13.2% and the “Inhibition (%) D1” value [3] was −6.8%. For the same molecule, the “Block of sumanirole-induced hypothermia response” value ([4]; 10 mg/kg) was “completely blocked”, the “Block of sumanirole-induced hypothermia response” value ([4]; 3.2 and 10 mg/kg) was “significantly and dose-dependently block the sumanirole-induced hypothermia response” and the “Inhibition (%) D5” value [5] was −8.5%. The “Inhibition (%) Alpha1B” value [6] was −0.2%, the “Inhibition (%) 5-HT2C” value [7] was 64.5% and the AC50 ([8]; dose response curve, read-out: D2 β-arrestin assay AC50) was 0.725 µM. For the same molecule, the “D3/D2 beta-arrestin IC50ratio” value ([8]; ratio of D3 (Example 4) to D2 (Example 2) beta arrestin assay) was 17.8.
